Test results from patent publication US20140087945A1, “SUBSTITUTED 4-CYAN-3-(2,6-DIFLUOROPHENYL)-4-PHENYLBUTANOATES, METHOD FOR THE PRODUCTION THEREOF AND USE THEREOF AS HERBICIDES AND PLANT GROWTH REGULATORS” (Bayer Intellectual Property GmbH, priority 2011, published 2014).

How the values were obtained:
[1] = tested on: a plurality of harmful plants; assay: Herbicidal pre-emergence action, greenhouse pot test; format: in vivo; conditions: pre-emergence method; application rate of 320 g or less of active substance per hectare
Source text: Seeds of monocotyledonous and dicotyledonous weed plants and crop plants are placed in wood-fiber pots in sandy loam and covered with soil. The compounds (I) according to the invention, formulated in the form of wettable powders (WP), are then applied as aqueous suspension or emulsion at a water application rate of 600 l/ha (converted) with the addition of 0.2% of wetting agent to the surface of the covering soil. After the treatment, the pots are placed in a greenhouse and kept under good growth conditions for the test plants. After about 3 weeks, the effect of the preparations is scored visually in comparison with untreated controls as percentages. For example, 100% activity=the plants have died, 50% herbicidal activity or damage=the plants have been reduced by 50% or the plant mass has been reduced by 50%, 0% activity=like control plants.

[2] = tested on: a plurality of harmful plants; assay: Herbicidal post-emergence action, greenhouse pot test; format: in vivo; conditions: post-emergence method
Procedure: Seeds of monocotyledonous and dicotyledonous weed and crop plants are placed in sandy loam in wood-fiber pots, covered with soil and cultivated in a greenhouse under good growth conditions. 2 to 3 weeks after sowing, the test plants are treated at the one-leaf stage, where the compounds (I) according to the invention, formulated in the form of wettable powders (WP), are applied by spraying as aqueous suspension or emulsion at a water application rate of 600 l/ha (converted) with the addition of 0.2% of wetting agent to the green parts of the plants. After the test plants have been kept in the greenhouse under optimum growth conditions for about 3 weeks, the activity of the preparations is rated visually in comparison to untreated controls in percent (%): For example, 100% activity=the plants have died, 50% herbicidal activity or damage=the plants have been reduced by 50% or the plant mass has been reduced by 50%, 0% activity=like control plants.

Row | SMILES | herbicidal activity against a plurality of harmful plants [1] | herbicidal activity against a plurality of harmful plants [2]
1 | COC(=O)CC(c1c(F)cccc1F)C(C#N)c1ccc(F)cc1 (mixture of isomers) [Example 1-3] | good herbicidal activity | good herbicidal activity
2 | COC(=O)CC(c1c(F)cccc1F)C(C#N)c1ccc(Cl)cc1 (mixture of isomers) [Example 1-6] | good herbicidal activity | good herbicidal activity
3 | COC(=O)CC(c1c(F)cccc1F)C(C#N)c1cc(F)cc(F)c1 (mixture of isomers) [Example 1-12] | good herbicidal activity | good herbicidal activity
4 | COC(=O)CC(c1c(F)cccc1F)C(C#N)c1ccc(F)c(Cl)c1 (mixture of isomers) [Example 1-15] | good herbicidal activity | good herbicidal activity
5 | COC(=O)CC(c1c(F)cccc1F)C(C#N)c1ccc(Cl)c(Cl)c1 (mixture of isomers) [Example 1-16] | good herbicidal activity | good herbicidal activity
6 | COC(=O)CC(c1c(F)cccc1F)C(C#N)c1cccc(I)c1 (mixture of isomers) [Example 1-19] | good herbicidal activity | good herbicidal activity
7 | COC(=O)CC(c1c(F)cccc1F)C(C#N)c1ccccc1OC (mixture of isomers) [Example 1-24] | good herbicidal activity | good herbicidal activity
8 | COC(=O)CC(c1c(F)cccc1F)C(C#N)c1ccc(OC)cc1 (mixture of isomers) [Example 1-26] | good herbicidal activity | good herbicidal activity
9 | COC(=O)CC(c1c(F)cccc1F)C(C#N)c1ccc(OC)c(OC)c1 (mixture of isomers) [Example 1-27] | good herbicidal activity | good herbicidal activity
10 | COC(=O)CC(c1c(F)cccc1F)C(C#N)c1ccc(OC)c(F)c1 (mixture of isomers) [Example 1-28] | good herbicidal activity | good herbicidal activity
11 | COC(=O)CC(c1c(F)cccc1F)C(C#N)c1ccc(C(F)(F)F)c(F)c1 (mixture of isomers) [Example 1-29] | good herbicidal activity | good herbicidal activity
12 | COC(=O)CC(c1c(F)cccc1F)C(C#N)c1cc(F)cc(C(F)(F)F)c1 (mixture of isomers) [Example 1-30] | good herbicidal activity | good herbicidal activity
13 | N#CC(c1cc(F)cc(C(F)(F)F)c1)C(CC(=O)O)c1c(F)cccc1F (mixture of isomers) [Example 1-228] | good herbicidal activity | good herbicidal activity
14 | COC(=O)CC(c1c(F)cccc1F)C(C#N)c1ccc(F)c(Br)c1 (mixture of isomers) [Example 1-232] | good herbicidal activity | good herbicidal activity
15 | COC(=O)CC(c1c(F)cccc1F)C(C#N)c1ccc(F)c(C#N)c1 (mixture of isomers) [Example 1-233] | good herbicidal activity | good herbicidal activity
16 | COC(=O)CC(c1c(F)cccc1F)C(C#N)c1ccc2ccccc2c1 (mixture of isomers) [Example 1-235] | good herbicidal activity | –
17 | COC(=O)CC(c1c(F)cccc1F)C(C#N)c1ccc(F)c(F)c1 (stereo not drawn) [Example 1-11, methyl 4-cyano-3-(2,6-difluorophenyl)-4-(3,4-difluorophenyl)butanoate] | good herbicidal activity | –
18 | N#CC(c1ccc(F)c(F)c1)C(CC(=O)O)c1c(F)cccc1F (stereo not drawn) [Example 1-106, 4-Cyano-3-(2,6-difluorophenyl)-4-(3,4-difluorophenyl)butanoic acid] | good herbicidal activity | good herbicidal activity
19 | COC(=O)CC(c1c(F)cccc1F)C(C#N)c1ccc(F)c(F)c1 (stereo not drawn) [Example 1-230, methyl erythro-4-cyano-3-(2,6-difluorophenyl)-4-(3,4-difluorophenyl)butanoate] | good herbicidal activity | good herbicidal activity
20 | COC(=O)CC(c1c(F)cccc1F)C(C#N)c1ccc(F)c(F)c1 (stereo not drawn) [Example 1-231, methyl threo-4-cyano-3-(2,6-difluorophenyl)-4-(3,4-difluorophenyl)-butanoate] | good herbicidal activity | –
21 | COC(=O)C[C@@H](c1c(F)cccc1F)[C@@H](C#N)c1ccc(F)c(F)c1 [Example 2-11, Methyl (3R,4R)-4-cyano-3-(2,6-difluorophenyl)-4-(3,4-difluorophenyl)-butanoate] | good herbicidal activity | good herbicidal activity
22 | COC(=O)C[C@@H](c1c(F)cccc1F)[C@@H](C#N)c1ccc(F)c(Cl)c1 [Example 2-15] | good herbicidal activity | –
23 | CCOC(=O)C[C@@H](c1c(F)cccc1F)[C@@H](C#N)c1ccc(F)c(F)c1 [Example 2-107, Ethyl (3R,4R)-4-cyano-3-(2,6-difluorophenyl)-4-(3,4-difluorophenyl)-butanoate] | good herbicidal activity | good herbicidal activity
24 | COC(=O)C[C@@H](c1c(F)cccc1F)[C@@H](C#N)c1ccc(F)c(Br)c1 [Example 2-229] | good herbicidal activity | good herbicidal activity
25 | COC(=O)C[C@@H](c1c(F)cccc1F)[C@@H](C#N)c1ccc(F)c(C#N)c1 [Example 2-230] | – | good herbicidal activity
